# Test system: MT assembly in Hct116 cells
# Assay: MT assembly rate in Hct116 cells (GFP-EB3 real-time fluorescence microscopy)
# Format: cell-based
# Method: FIG. 26 illustrates MT assembly rate in Hct116 cells in culture were measured by following GFP-EB3 fluorescent signal by real-time fluorescence microscopy (basal pre-drug represented with gray dots). […] Each dot represents MT assembly rate in one cell. Lower ***, P<0.001 and **, P<0.01 compared with pre-drug; one-way ANOVA with the Tukey post-hoc test. Data are the mean±SEM.
structure (smiles),measurement,setting,value
"CCn1c2ccccc2c2cc(C(O)c3cccc4ncccc34)ccc21 (racemic) [Compound 19, (9-ethyl-9H-carbazol-3-yl)(quinolin-5-yl)methanol]",effect on MT assembly rate (in words),"200 nM, reversible after 30 min wash",fully stops MT assembly
same,effect on MT assembly rate (in words),"50 and 100 nM, reversible after 15 min wash",significantly reduce MT assembly
